# From ChEMBL document CHEMBL3739380, “Discovery of benzothiazoles as antimycobacterial agents: Synthesis, structure-activity relationships and binding studies with Mycobacterium tuberculosis decaprenylphosphoryl-β-D-ribose 2'-oxidase” (Bioorg Med Chem, 2015)
# Calls of active or inactive are those of the source. No cut-off for these calls is given here.
# Experiments:
# [1] = Inhibition of Mycobacterium tuberculosis DprE1 using farnesyl-phosphoryl-beta-D-ribofuranose as substrate preincubated for 30 mins before substrate addition by peroxidase coupled assay
# [2] = system: Mycobacterium tuberculosis; experiment: Antimycobacterial activity against Mycobacterium tuberculosis H37Rv ATCC 27294 after 5 days by microdilution method; type: functional; details: H37Rv ATCC 27294, 120 h
# [3] = system: Salmonella typhimurium; experiment: Genotoxicity in Salmonella typhimurium TA98 at 50 ug/plate by Ames test in absence of S9 fraction; type: toxicity, organism-based; details: salmonella enterica subsp. enterica serovar typhimurium
# [4] = system: Salmonella typhimurium; experiment: Genotoxicity in Salmonella typhimurium TA100 at 50 ug/plate by Ames test in absence of S9 fraction; type: toxicity, organism-based; details: salmonella enterica subsp. enterica serovar typhimurium
# [5] = system: Salmonella typhimurium; experiment: Genotoxicity in Salmonella typhimurium TA98 at 50 ug/plate by Ames test in presence of S9 fraction; type: toxicity, organism-based; details: salmonella enterica subsp. enterica serovar typhimurium
# [6] = system: Salmonella typhimurium; experiment: Genotoxicity in Salmonella typhimurium TA100 at 16 ug/plate by Ames test in presence of S9 fraction; type: toxicity, organism-based; details: salmonella enterica subsp. enterica serovar typhimurium
# [7] = system: Salmonella typhimurium; experiment: Genotoxicity in Salmonella typhimurium TA98 at 500 ug/plate by Ames test in absence of S9 fraction; type: toxicity, organism-based; details: salmonella enterica subsp. enterica serovar typhimurium
# [8] = system: Salmonella typhimurium; experiment: Genotoxicity in Salmonella typhimurium TA98 at 500 ug/plate by Ames test in presence of S9 fraction; type: toxicity, organism-based; details: salmonella enterica subsp. enterica serovar typhimurium
# [9] = molecular target: Cytochrome P450 2C9 (Homo sapiens, UniProt P11712); experiment: Inhibition of human recombinant CYP2C9 by fluorescence assay; type: ADME; details: read-out: IC50
# Sequence of Cytochrome P450 2C9 (P11712 whole entry): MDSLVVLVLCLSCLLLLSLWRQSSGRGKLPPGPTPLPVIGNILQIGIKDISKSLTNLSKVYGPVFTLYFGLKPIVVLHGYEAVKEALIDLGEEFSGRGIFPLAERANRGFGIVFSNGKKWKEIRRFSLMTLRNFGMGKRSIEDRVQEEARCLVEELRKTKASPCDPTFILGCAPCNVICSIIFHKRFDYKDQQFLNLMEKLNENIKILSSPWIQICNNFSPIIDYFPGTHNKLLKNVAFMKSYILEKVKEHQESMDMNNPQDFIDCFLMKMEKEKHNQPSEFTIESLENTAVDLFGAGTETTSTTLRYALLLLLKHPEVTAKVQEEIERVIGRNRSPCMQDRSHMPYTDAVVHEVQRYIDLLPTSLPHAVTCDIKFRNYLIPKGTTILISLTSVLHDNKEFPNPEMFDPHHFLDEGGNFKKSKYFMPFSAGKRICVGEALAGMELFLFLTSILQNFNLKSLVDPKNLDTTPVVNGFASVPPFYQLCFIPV
# [10] = molecular target: T1, Cytochrome P450 1A2 (Homo sapiens, UniProt P05177); experiment: Inhibition of human recombinant CYP1A2 by fluorescence assay; type: ADME
# T1 sequence (P05177 whole entry): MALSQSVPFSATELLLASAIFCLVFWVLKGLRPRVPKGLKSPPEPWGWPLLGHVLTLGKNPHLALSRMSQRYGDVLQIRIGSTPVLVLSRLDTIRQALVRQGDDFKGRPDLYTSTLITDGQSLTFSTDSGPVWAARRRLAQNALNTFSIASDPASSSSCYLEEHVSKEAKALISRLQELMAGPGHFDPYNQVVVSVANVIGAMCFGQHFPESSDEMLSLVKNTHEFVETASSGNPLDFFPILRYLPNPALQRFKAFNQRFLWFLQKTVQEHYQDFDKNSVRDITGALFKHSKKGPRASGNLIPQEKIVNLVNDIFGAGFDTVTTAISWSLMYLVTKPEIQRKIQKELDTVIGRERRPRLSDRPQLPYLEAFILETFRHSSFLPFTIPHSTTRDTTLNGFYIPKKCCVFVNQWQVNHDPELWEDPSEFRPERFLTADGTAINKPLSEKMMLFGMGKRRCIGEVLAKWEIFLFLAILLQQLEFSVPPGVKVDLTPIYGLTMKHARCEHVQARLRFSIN
# [11] = molecular target: Cytochrome P450 2D6 (Homo sapiens, UniProt P10635); experiment: Inhibition of human recombinant CYP2D6 by fluorescence assay; type: ADME
# Sequence of Cytochrome P450 2D6 (P10635 whole entry): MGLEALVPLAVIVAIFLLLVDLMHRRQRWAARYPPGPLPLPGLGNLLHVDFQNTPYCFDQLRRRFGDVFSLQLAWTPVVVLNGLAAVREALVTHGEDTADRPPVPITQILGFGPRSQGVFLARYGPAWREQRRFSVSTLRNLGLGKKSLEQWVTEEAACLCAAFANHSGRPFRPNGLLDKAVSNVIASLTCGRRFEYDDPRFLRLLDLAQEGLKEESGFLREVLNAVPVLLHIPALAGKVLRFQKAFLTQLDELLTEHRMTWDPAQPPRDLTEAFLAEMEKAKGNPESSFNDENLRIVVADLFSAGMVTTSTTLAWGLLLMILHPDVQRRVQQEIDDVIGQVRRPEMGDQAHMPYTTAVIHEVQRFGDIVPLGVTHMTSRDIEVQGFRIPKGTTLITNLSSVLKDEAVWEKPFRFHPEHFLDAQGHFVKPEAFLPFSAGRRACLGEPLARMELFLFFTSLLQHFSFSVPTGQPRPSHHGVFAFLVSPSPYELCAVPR
# [12] = molecular target: Cytochrome P450 2C19 (Homo sapiens, UniProt P33261); experiment: Inhibition of human recombinant CYP2C19 by fluorescence assay; type: ADME
# Sequence of Cytochrome P450 2C19 (P33261 whole entry): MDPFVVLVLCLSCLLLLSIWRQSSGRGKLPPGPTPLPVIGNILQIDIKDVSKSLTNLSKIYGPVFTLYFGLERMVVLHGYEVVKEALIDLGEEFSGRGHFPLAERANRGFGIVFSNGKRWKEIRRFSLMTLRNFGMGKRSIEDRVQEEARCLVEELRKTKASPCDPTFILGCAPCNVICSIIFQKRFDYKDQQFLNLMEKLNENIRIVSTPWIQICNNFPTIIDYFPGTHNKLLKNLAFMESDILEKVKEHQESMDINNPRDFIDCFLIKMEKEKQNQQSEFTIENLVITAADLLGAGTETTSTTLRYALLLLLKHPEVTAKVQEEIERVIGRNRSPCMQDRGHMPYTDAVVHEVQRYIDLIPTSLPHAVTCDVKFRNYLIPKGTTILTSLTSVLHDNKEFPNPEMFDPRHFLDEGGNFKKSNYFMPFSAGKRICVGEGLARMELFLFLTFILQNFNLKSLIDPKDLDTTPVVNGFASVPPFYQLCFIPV
# [13] = molecular target: Cytochrome P450 3A4 (Homo sapiens, UniProt P08684); experiment: Inhibition of human recombinant CYP3A4 by fluorescence assay; type: ADME
# Sequence of Cytochrome P450 3A4 (P08684 whole entry): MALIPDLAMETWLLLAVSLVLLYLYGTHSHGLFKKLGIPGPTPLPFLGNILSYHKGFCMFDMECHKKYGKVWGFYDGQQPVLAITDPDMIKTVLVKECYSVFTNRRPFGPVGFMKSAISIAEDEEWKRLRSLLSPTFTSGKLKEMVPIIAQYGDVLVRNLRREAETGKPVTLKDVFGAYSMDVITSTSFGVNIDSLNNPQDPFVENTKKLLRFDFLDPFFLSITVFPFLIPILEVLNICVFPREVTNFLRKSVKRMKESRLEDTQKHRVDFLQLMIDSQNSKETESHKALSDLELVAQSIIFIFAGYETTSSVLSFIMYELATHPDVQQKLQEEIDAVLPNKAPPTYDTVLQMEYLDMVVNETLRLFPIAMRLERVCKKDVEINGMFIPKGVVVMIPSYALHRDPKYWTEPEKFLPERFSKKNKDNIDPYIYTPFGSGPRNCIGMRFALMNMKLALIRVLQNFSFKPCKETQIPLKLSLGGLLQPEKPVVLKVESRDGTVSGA
# [14] = system: A549; experiment: Cytotoxicity against human A549 cells after 72 hrs by fluorescence assay; type: cell-based; details: A549, 72 h
# [15] = Aqueous solubility of the compound; type: physicochemical; details: buffer
# [16] = Fraction unbound in mouse plasma protein; type: ADME, cell-free
# [17] = Intrinsic clearance in mouse liver microsomes; type: ADME; details: read-out: CLH
# [18] = Intrinsic clearance in human liver microsomes; type: ADME; details: read-out: CLH
# [19] = Clearance in iv dosed mouse; type: ADME, organism-based; details: in vivo
# [20] = Oral bioavailability in mouse; type: ADME, organism-based; details: in vivo
# [21] = AUC100 in po dosed mouse; type: ADME, organism-based; details: in vivo
# [22] = Volume of distribution at steady state in mouse; type: ADME, organism-based; details: in vivo, read-out: Vdss
# [23] = system: Salmonella typhimurium; experiment: Genotoxicity in Salmonella typhimurium TA98 at 1600 ug/plate by Ames test in absence of S9 fraction; type: toxicity, organism-based; details: salmonella enterica subsp. enterica serovar typhimurium
# [24] = system: Salmonella typhimurium; experiment: Genotoxicity in Salmonella typhimurium TA100 at 16 ug/plate by Ames test in absence of S9 fraction; type: toxicity, organism-based; details: salmonella enterica subsp. enterica serovar typhimurium
# [25] = system: Salmonella typhimurium; experiment: Genotoxicity in Salmonella typhimurium TA98 at 1600 ug/plate by Ames test in presence of S9 fraction; type: toxicity, organism-based; details: salmonella enterica subsp. enterica serovar typhimurium
# [26] = system: Salmonella typhimurium; experiment: Genotoxicity in Salmonella typhimurium TA100 at 1600 ug/plate by Ames test in absence of S9 fraction; type: toxicity, organism-based; details: salmonella enterica subsp. enterica serovar typhimurium
# [27] = system: Salmonella typhimurium; experiment: Genotoxicity in Salmonella typhimurium TA100 at 160 ug/plate by Ames test in presence of S9 fraction; type: toxicity, organism-based; details: salmonella enterica subsp. enterica serovar typhimurium
# [28] = system: Salmonella typhimurium; experiment: Genotoxicity in Salmonella typhimurium TA98 at 5000 ug/plate by Ames test in absence of S9 fraction; type: toxicity, organism-based; details: salmonella enterica subsp. enterica serovar typhimurium
# [29] = system: Salmonella typhimurium; experiment: Genotoxicity in Salmonella typhimurium TA100 at 5000 ug/plate by Ames test in absence of S9 fraction; type: toxicity, organism-based; details: salmonella enterica subsp. enterica serovar typhimurium
# [30] = system: Salmonella typhimurium; experiment: Genotoxicity in Salmonella typhimurium TA98 at 5000 ug/plate by Ames test in presence of S9 fraction; type: toxicity, organism-based; details: salmonella enterica subsp. enterica serovar typhimurium
# [31] = system: Salmonella typhimurium; experiment: Genotoxicity in Salmonella typhimurium TA100 at 5000 ug/plate by Ames test in presence of S9 fraction; type: toxicity, organism-based; details: salmonella enterica subsp. enterica serovar typhimurium
# [32] = system: Mycobacterium tuberculosis; experiment: Binding affinity to N-terminal His-tagged Mycobacterium tuberculosis DprE1 assessed as molecular weight shift due to semimercaptal covalent DprE1 adduct formation at 400 uM incubated for 5 hrs in presence of FAD and FPR by deconvoluted mass spectrometry
smiles,measurement,setting,value
COCCN1CCN(C(=O)c2sc3c([N+](=O)[O-])cc(C(F)(F)F)cc3[n+]2[O-])CC1,IC50,[1],0.027 µM
same,MIC,[2],0.03 µg/mL
same,Activity,[3],Toxic
same,Activity,[4],Toxic
same,Activity,[5],Toxic
same,Activity,[6],Toxic
O=C(c1nc2cc(C(F)(F)F)cc([N+](=O)[O-])c2s1)N1CCCCC1,IC50,[1],0.213 µM
same,MIC,[2],0.7 µg/mL
same,Activity,[4],Toxic
same,Activity,[6],Toxic
same,Activity,[7],Toxic
same,Activity,[8],Toxic
O=C([C@@H]1COC(c2nc3cc(C(F)(F)F)cc([N+](=O)[O-])c3s2)=N1)N1CCCC1,IC50,[9],12.4 µM
same,IC50,[10],53.1 µM
same,IC50,[1],0.654 µM
same,MIC,[2],1.4 µg/mL
same,IC50,[11],3.4 µM
same,IC50,[12],24.2 µM
same,IC50,[13],18.6 µM
same,IC50,[14],82 µM
same,solubility,[15],64.6 µM
same,fraction unbound,[16],0.06
same,microsomal CLint,[17],76.6 µL/min/mg
same,microsomal CLint,[18],5.3 µL/min/mg
same,clearance,[19],49 mL/min/kg
same,bioavailability,[20],27%
same,AUC,[21],9180 ng·h/mL
same,Vd,[22],1.44 L/kg
same,Activity,[6],Toxic
same,Activity,[23],Toxic
same,Activity,[24],Toxic
same,Activity,[25],Toxic
O=[N+]([O-])c1cc(C(F)(F)F)cc2nc(C3=NCCO3)sc12,MIC,[2],1 µg/mL
same,Activity,[7],Toxic
same,Activity,[8],Toxic
same,Activity,[26],Toxic
same,Activity,[27],Toxic
N#Cc1cc(C(F)(F)F)cc2nc(C(=O)N3CCCCC3)sc12,MIC,[2],> 32 µg/mL
O=C(c1nc2cc(C(F)(F)F)cc([N+](=O)[O-])c2s1)N1CCOCC1,IC50,[1],0.3 µM
same,MIC,[2],0.1 µg/mL
Cc1c(C(F)(F)F)cc2nc(C(=O)NCc3ccccn3)sc2c1[N+](=O)[O-],IC50,[1],1.2 µM
same,MIC,[2],0.3 µg/mL
Cc1c(C(F)(F)F)cc2nc(C3=N[C@H](C(=O)N4CCCC4)CO3)sc2c1[N+](=O)[O-],IC50,[9],22.1 µM
same,IC50,[10],> 100 µM
same,IC50,[1],1.2 µM
same,MIC,[2],2 µg/mL
same,IC50,[11],> 100 µM
same,IC50,[12],73.5 µM
same,IC50,[13],> 100 µM
same,IC50,[14],> 100 µM
same,solubility,[15],12 µM
same,fraction unbound,[16],0.063
same,microsomal CLint,[17],37.9 µL/min/mg
same,microsomal CLint,[18],9.6 µL/min/mg
same,clearance,[19],83.5 mL/min/kg
same,bioavailability,[20],22.5%
same,AUC,[21],10200 ng·h/mL
same,Vd,[22],3.5 L/kg
same,Activity,[28],Non-toxic
same,Activity,[29],Non-toxic
same,Activity,[30],Non-toxic
same,Activity,[31],Non-toxic
O=C(NCc1cccnc1)c1sc2c([N+](=O)[O-])cc(C(F)(F)F)cc2[n+]1[O-],MIC,[2],0.03 µg/mL
same,Activity,[32],Active
Cc1c(C(F)(F)F)cc2nc(C(=O)N[C@@H](CO)C(=O)N3CCCC3)sc2c1[N+](=O)[O-],IC50,[1],1.2 µM
same,MIC,[2],1 µg/mL
O=C(c1nc2cc(C(F)(F)F)cc(-[n+]3cc([O-])on3)c2s1)N1CCCCC1,IC50,[1],28.2 µM
same,MIC,[2],32 µg/mL
O=[N+]([O-])c1cc(C(F)(F)F)cc2nc(CN3CCOCC3)sc12,IC50,[1],5.2 µM
same,MIC,[2],> 32 µg/mL
O=C(O)c1cc(C(F)(F)F)cc2nc(C(=O)N3CCCCC3)sc12,IC50,[1],> 100 µM
same,MIC,[2],> 32 µg/mL
O=C(NCc1ccccn1)c1nc2cc(C(F)(F)F)ccc2s1,IC50,[1],> 100 µM
same,MIC,[2],> 32 µg/mL
